From patent US9790218B2, “Small molecule activators of calcium-activated chloride channels and methods of use” (The Regents of the University of California, priority 2011, dated 2017)

What was measured:
CFTR = biological target: T1, CFTR (Homo sapiens, UniProt P13569); test: CFTR conductance in FRT cells expressing wild type CFTR and YFP indicator; format: cell-based; conditions: 10 μM, 5 min pretreatment; forskolin 10 μM
T1 construct: expressed in transfected cells; host or cells: FRT cells co-expressing a YFP halide indicator
T1 sequence (P13569 whole entry): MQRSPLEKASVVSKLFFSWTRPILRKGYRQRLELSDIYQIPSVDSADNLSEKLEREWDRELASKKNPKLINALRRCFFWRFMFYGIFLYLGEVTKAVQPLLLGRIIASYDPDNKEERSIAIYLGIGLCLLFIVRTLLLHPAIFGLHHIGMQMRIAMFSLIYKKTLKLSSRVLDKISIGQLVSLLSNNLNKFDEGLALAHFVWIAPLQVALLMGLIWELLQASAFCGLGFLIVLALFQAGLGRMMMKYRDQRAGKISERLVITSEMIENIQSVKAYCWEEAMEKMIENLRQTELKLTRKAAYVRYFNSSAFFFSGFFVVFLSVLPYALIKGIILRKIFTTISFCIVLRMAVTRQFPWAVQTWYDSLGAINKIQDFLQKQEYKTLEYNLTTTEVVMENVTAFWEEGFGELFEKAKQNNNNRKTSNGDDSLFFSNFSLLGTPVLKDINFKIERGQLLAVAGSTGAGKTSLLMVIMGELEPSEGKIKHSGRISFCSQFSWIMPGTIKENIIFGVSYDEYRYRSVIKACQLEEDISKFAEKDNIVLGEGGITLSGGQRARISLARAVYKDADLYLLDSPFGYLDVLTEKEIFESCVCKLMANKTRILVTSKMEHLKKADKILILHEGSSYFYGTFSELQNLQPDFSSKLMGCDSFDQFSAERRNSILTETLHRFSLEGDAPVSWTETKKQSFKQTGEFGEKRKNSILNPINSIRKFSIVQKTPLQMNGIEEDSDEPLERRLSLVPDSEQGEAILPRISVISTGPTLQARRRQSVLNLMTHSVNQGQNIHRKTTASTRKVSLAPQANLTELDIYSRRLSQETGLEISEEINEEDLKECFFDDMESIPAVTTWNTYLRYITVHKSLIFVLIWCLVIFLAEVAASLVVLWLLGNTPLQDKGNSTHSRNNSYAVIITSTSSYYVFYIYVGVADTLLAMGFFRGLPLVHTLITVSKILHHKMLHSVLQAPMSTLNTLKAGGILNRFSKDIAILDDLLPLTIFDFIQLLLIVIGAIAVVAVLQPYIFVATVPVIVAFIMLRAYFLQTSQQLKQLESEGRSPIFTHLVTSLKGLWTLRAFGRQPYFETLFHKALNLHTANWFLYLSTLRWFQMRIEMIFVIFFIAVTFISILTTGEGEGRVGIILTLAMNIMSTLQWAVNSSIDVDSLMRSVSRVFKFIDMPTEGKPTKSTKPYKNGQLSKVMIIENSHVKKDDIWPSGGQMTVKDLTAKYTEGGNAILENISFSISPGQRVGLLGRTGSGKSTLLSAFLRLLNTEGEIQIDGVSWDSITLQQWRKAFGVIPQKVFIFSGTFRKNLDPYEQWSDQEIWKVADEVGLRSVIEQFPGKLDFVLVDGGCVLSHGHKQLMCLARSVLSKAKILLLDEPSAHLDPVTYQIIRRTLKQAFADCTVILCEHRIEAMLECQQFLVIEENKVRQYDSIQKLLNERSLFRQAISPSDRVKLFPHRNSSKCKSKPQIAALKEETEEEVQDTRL
Protocol: (§1) FIG. 2A-E. Characterization of TMEM16A activators. FIG. 2A. Cytoplasmic calcium measured by Fluo-4 fluorescence. 100 μM ATP (gray line) or 10 μM of indicated TMEM16A activators were added at the arrow. FIG. 2B. Apical membrane current measured in TMEM16A-expressing FRT cells in the presence of a transepithelial chloride gradient and after basolateral membrane permeabilization. […] T16Ainh-A01 (10 μM) added where indicated. […] (right) Concentration-activation data summary (mean±S.E., n=4-6). FIG. 2C. Synergistic effect of Eact and Fact. (left and center) Representative current traces showing synergy. (right) Data summary of low doses of TMEM16A activation (mean±S.E., n=5, * P<0.05). FIG. 2D. Apical membrane current measured in FRT cells transfected with mouse TMEM16A or TMEM16B. FIG. 2E. Effect of Eact and Fact on CFTR and ENaC. (left) FRT cells expressing wild type CFTR and YFP indicator were pretreated for 5 min with 10 μM Eact and Fact. Forskolin (10 μM) added as indicated. (right) HBE cells were pre-treated for 5 min with 10 μM Eact and Fact, with amiloride (10 μM) added as indicated.

ENaC = biological target: T2, ENaC (Homo sapiens, UniProt P37088+P51168+P51170); test: ENaC Na^+ conductance in HBE cells; format: cell-based; conditions: 10 μM, 5 min pretreatment; amiloride 10 μM
T2 construct: endogenous in cells; host or cells: primary human bronchial epithelial (HBE) cells at air-liquid interface
T2 sequence (P37088 1-669): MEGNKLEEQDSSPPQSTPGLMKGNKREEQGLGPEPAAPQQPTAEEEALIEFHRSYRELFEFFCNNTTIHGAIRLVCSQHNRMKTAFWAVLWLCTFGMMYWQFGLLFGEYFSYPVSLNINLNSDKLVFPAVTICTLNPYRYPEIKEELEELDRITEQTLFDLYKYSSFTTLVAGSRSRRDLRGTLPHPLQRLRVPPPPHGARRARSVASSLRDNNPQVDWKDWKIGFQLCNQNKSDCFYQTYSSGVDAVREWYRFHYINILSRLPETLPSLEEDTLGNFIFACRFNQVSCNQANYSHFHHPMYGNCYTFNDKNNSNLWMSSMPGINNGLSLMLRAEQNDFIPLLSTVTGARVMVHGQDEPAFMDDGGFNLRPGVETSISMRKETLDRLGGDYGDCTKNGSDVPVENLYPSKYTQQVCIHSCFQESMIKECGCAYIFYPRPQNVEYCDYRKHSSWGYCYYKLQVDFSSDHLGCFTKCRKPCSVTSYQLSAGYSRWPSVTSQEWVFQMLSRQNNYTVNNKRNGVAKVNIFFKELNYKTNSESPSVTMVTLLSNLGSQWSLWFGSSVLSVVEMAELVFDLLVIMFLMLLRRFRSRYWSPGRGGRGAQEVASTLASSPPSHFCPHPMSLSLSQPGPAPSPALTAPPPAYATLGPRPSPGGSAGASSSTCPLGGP
T2 sequence (P51168 1-640): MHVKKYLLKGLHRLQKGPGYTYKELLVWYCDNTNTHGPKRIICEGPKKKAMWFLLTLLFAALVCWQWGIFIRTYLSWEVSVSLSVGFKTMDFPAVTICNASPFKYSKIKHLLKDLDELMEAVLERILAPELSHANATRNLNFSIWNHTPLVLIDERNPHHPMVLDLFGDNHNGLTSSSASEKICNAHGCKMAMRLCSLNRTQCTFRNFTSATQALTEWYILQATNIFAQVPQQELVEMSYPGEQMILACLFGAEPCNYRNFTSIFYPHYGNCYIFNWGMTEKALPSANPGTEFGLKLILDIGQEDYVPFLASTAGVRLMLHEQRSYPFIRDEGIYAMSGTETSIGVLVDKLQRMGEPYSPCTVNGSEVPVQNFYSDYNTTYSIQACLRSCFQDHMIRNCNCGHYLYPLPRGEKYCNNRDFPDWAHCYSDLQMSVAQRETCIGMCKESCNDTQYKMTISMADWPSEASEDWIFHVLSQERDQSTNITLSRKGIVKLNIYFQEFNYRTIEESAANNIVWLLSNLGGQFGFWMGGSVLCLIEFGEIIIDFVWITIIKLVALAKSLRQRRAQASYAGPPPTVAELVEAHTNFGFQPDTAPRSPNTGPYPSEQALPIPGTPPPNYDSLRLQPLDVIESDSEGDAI
T2 sequence (P51170 1-649): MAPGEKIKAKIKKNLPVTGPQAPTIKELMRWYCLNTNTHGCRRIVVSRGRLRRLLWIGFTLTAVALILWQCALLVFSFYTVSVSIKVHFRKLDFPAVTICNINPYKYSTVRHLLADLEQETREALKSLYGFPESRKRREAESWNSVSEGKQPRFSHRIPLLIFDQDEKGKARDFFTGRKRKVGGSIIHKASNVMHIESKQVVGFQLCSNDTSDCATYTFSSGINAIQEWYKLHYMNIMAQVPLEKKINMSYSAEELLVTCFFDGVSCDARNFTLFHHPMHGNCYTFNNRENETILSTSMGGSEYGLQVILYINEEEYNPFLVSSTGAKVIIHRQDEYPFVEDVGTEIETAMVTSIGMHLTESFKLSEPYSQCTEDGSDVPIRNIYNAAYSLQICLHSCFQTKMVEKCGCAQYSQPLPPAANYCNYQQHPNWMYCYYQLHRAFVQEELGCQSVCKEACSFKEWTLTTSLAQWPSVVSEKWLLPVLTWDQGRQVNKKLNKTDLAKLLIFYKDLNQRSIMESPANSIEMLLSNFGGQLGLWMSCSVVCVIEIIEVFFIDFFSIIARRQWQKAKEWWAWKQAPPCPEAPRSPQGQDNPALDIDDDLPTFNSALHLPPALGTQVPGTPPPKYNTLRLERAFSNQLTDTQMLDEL
Protocol: as §1, with “(right) HBE cells were pre-treated for 5 min with 10 μM Eact and Fact, with amiloride (10 μM) added as indicated.” left out
Snapwell inserts containing TMEM16A-expressing FRT, HBE, CF HBE or HTG cells were mounted in Ussing chambers (Physiologic Instruments, San Diego, Calif.). […] Apical membrane current (for FRT cells) and short-circuit current were measured using an EVC4000 Multi-Channel V/I Clamp (World Precision Instruments, Sarasota, Fla.) and recorded using PowerLab/8sp (AD Instruments, Castle Hill, Australia).

Question: Which “effect on CFTR conductance” value (CFTR) does the source give for `O=C(Nc1ccc(Br)cc1)c1cccc(-n2cnnn2)c1` [Fact, N-(4-bromophenyl)-3-(1H-tetrazol-1-yl)benzamide] here?
Answer: Neither Eact nor Fact affected

Question: What about the “effect on ENaC Na^+ conductance” value (ENaC) of the same compound?
Answer: Neither Eact nor Fact affected
